The record followed here is patent US8796244B2, “Imidazopyridine derivatives as inhibitors of receptor tyrosine kinases” (Astex Therapeutics Ltd, priority 2008, dated 2014).

Where a name gives a salt, the structure may show the parent alone. Read-outs that look alike come from different tables or passages of the source. Some results are limits rather than exact numbers.

In assay [1] the target is VEGFR2 (Homo sapiens (Human), UniProt P35968). The assay can be described thus: VEGFR2 in vitro kinase inhibitory activity assay (TRF, Flt3 substrate). It counts as biochemical.
Assay [2] relates to parental wild-type Ba/F3 cells. The assay can be described thus: Ba/F3 (WT) cell proliferation assay (Alamar Blue). It counts as cell-based. Conditions: Mus musculus; for IC50: 72 hours, Alamar Blue, read-out: BaF3 WT prolif. For orientation: The colour change of resazurin is a common sign of viable cells or microbes.
Assay [3] has as its system Ba/F3-TEL-FGFR3 cells. In words: Ba/F3-TEL-FGFR3 cell proliferation assay (Alamar Blue). The format is cell-based. The conditions noted are these: 72 hours, Alamar Blue; read-out: BaF3-TEL-FGFR3 prolif.
For assay [4], the system named is LP-1 cell line (FGF-1/Heparin induced pERK). In words: Cell-based pERK ELISA, LP-1 cells. The conditions noted are these: Homo sapiens; for IC50: LP-1, read-out: LP-1 pERK ELISA (μM).
Assay [5] addresses FGFR3 (Homo sapiens (Human), UniProt P22607). In words: FGFR3 in vitro kinase inhibitory activity assay (TRF). Conditions: 3 h, read-out: FGFR3 % I.
Setting [6] is: BaF3, read-out: BaF3 WT prolif, % inhibition.
Setting [7] is: BaF3, at 10 μM, read-out: BaF3 WT prolif, % inhibition.

VEGFR2, sequence (P35968 20-1356): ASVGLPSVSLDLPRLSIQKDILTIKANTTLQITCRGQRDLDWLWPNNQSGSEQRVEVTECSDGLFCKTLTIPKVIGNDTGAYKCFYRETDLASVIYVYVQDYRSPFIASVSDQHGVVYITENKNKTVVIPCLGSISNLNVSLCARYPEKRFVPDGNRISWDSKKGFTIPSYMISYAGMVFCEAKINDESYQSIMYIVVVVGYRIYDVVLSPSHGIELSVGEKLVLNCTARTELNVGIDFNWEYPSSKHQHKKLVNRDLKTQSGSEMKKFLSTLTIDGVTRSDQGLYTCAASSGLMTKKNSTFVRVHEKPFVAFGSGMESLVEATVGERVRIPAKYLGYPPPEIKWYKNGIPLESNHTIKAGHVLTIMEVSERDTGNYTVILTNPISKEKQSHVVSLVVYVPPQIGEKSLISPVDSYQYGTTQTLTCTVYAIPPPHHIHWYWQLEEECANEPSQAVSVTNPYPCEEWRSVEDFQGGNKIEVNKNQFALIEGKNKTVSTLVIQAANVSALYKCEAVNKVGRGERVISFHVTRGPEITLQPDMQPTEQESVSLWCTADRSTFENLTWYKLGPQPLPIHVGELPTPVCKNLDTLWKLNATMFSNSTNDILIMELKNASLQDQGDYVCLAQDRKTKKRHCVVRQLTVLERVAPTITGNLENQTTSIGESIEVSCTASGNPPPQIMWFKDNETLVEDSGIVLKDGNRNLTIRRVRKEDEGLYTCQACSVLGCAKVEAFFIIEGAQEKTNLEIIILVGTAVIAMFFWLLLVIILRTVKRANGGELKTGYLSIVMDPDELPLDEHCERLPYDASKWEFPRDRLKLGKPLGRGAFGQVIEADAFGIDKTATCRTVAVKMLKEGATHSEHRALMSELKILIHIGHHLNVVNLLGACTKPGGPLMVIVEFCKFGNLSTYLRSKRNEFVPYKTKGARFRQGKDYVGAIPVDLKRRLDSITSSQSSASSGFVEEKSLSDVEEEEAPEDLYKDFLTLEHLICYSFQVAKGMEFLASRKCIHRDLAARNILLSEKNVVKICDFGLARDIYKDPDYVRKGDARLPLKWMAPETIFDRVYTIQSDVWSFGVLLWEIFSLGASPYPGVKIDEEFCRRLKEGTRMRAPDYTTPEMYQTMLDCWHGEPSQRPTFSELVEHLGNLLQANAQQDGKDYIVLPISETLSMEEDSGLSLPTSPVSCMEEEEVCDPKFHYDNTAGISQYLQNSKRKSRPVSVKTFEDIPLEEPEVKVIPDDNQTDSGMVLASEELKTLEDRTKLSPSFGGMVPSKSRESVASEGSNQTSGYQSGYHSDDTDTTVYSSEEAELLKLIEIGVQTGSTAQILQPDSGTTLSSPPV
FGFR3, sequence (P22607 23-806): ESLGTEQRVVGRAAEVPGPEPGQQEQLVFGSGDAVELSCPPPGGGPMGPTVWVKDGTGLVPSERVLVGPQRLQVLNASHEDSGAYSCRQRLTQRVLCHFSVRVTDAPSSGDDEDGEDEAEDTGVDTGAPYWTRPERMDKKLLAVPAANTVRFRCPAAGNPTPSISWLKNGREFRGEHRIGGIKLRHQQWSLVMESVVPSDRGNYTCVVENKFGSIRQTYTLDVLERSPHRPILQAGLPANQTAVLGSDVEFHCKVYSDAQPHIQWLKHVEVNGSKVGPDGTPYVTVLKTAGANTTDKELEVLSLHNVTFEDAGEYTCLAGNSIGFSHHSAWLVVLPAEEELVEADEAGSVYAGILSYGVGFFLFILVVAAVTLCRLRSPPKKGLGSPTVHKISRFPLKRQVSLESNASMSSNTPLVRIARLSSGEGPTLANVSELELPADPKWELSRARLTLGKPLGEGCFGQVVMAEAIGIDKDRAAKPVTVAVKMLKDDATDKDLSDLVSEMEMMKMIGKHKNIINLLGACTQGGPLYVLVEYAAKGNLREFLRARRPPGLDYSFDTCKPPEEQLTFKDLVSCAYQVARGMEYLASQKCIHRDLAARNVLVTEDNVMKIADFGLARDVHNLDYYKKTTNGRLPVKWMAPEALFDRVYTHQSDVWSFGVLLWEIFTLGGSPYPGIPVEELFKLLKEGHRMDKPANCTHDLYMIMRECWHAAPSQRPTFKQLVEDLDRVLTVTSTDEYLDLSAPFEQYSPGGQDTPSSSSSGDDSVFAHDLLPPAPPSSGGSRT

For the compound `O=C(NCC(F)(F)F)Nc1cc(OC2CCCC2)cc(-c2cnc3cc(-c4ncccn4)ccn23)c1` [Compound 284], in assay [1] (1 h, at 10 μM, read-out: VEGFR2 % I), the inhibition at 10 µM came to 62%. Further, the inhibition at 3 µM in assay [2] (setting [6]) was 14%. In assay [2] (BaF3), the IC50 is 3400 nM.
Turning to `COCCOc1cc(NC(=O)NCC(F)(F)F)cc(-c2cnc3cc(-c4ncc(F)c(N)n4)ccn23)c1` [Compound 285], the inhibition at 3 µM in assay [1] (1 h, read-out: VEGFR2 % I) came out at 51%. In addition, in assay [2] (setting [6]), the inhibition at 1 µM amounted to 12% and the inhibition at 10 µM is 10%.
Consider `Cc1cc(NC(=O)NCC(F)(F)F)cc(-c2cnc3cc(-c4ncc(F)c(N)n4)ccn23)c1` [Compound 291], for which the inhibition at 0.98 µM in assay [1] (1 h, at 0.98 μM, read-out: VEGFR2 % I) amounted to 57%. Moreover, in assay [2] (setting [6]), the inhibition at 1 µM worked out at 24%.
Turning to `Cc1cc(NC(=O)NCC(F)(F)F)cc(-c2cnc3cc(-c4ccnc(C(F)(F)F)n4)ccn23)c1` [Compound 306], in assay [1] (1 h, read-out: VEGFR2 % I), the inhibition at 1 µM came to 60%. Also, the inhibition at 10 µM in assay [2] (setting [6]) came out at 0%.
Take `Nc1nc(-c2ccn3c(-c4cc(NC(=O)NCC(F)(F)F)ccc4F)cnc3c2)ncc1F` [Compound 311]: the inhibition at 0.978 µM in assay [1] (1 h, read-out: VEGFR2 % I) was determined as 20%. In assay [2] (setting [6]), the inhibition at 3 µM was determined as 2% and the inhibition at 10 µM is 32%.
For the compound `CCCCOC(=O)Nc1nc(-c2ccn3c(-c4cccc(NC(=O)NCC(F)(F)F)c4)cnc3c2)ncc1F` [Compound 314], the inhibition at 3 µM in assay [1] (1 h, read-out: VEGFR2 % I) is 62%. The inhibition at 10 µM in assay [2] (setting [6]) amounted to 21%.
In the case of `Cc1ccc(NC(=O)NCC(F)(F)F)cc1-c1cnc2cc(C#Cc3cncn3C)ccn12` [Compound 326], the inhibition at 0.978 µM in assay [1] (1 h, read-out: VEGFR2 % I) turned out to be 45%. In assay [2] (setting [6]), the inhibition at 10 µM was 18%.
Consider `O=C(NCC(F)(F)F)Nc1cccc(-c2cnc3cc(-c4cccnn4)ccn23)c1` [Example 9, 1-[3-(7-Pyridazin-3-ylimidazo[1,2-a]pyridin-3-yl)phenyl]-3-(2,2,2-trifluoroethyl)urea hydrochloride], for which the IC50 in assay [3] turned out to be 797 nM; in assay [2] (BaF3) it was 6400 nM; in assay [4] it was 0.14 µM.
The like results for `CC(C)N1CC(n2cc(-c3ccn4c(-c5cccc(NC(=O)NCC(F)(F)F)c5)cnc4c3)cn2)C1` [Example 32, 1-(3-{7-[1-(1-Isopropylazetidin-3-yl)-1H-pyrazol-4-yl]imidazo[1,2-a]pyridin-3-yl}phenyl)-3-(2,2,2-trifluoroethyl)-urea] were, in that order, 12 nM, 670 nM and 0.014 µM.
On to `CN1CCCC(n2cc(-c3ccn4c(-c5cccc(NC(=O)NCC(F)(F)F)c5)cnc4c3)cn2)C1` (stereo not shown) [Example 38, 1-(3-{7-[1-(1-Methylpiperidin-3-yl)-1H-pyrazol-4-yl]imidazo[1,2-a]pyridin-3-yl]phenyl)-3-(2,2,2-trifluoroethyl)urea hydrochloride], for which the IC50 in assay [3] came out at 22 nM; in assay [2] (BaF3), 440 nM; in assay [4] it was 0.0086 µM.
As to `CCN1CCC(n2cc(-c3ccn4c(-c5cccc(NC(=O)NCC(F)(F)F)c5)cnc4c3)cn2)C1` (stereo not shown) [Example 44, 1-(3-{7-[1-(1-Ethyl-pyrrolidin-3-yl)-1H-pyrazol-4-yl)-imidazo[1,2-a]pyridin-3-yl}-phenyl)-3-(2,2,2-trifluoro-ethyl)-urea], the IC50 in assay [3] stood at 45 nM; in assay [2] (BaF3) it was 900 nM; in assay [4] it was 0.022 µM.
Turning to `CC(C)(C)OC(=O)N1CCC(n2cc(-c3ccn4c(-c5cncc(NC(=O)NCC(F)(F)F)c5)cnc4c3)cn2)CC1` [Example 55, 4-[4-(3-{5-[3-(2,2,2-Trifluoro-ethyl)-ureido]-pyridin-3-yl}-imidazo[1,2-a]pyridin-7-yl)-pyrazol-1-yl]-piperidine-1-carboxylic acid tert-butyl ester], the inhibition at 0.0003 µM in assay [5] turned out to be 38%.
`CCN(CC)CCNC(=O)C(C)(C)n1cc(-c2ccn3c(-c4cccc(NC(=O)NCC(F)(F)F)c4)cnc3c2)cn1` [Example 68, N-(2-Diethylamino-ethyl)-2-[4-(3 {3-[3-(2,2,2-trifluoro-ethyl)-ureido]-phenyl}-imidazo[1,2-a]pyridin-7-yl)-pyrazol-1-yl]-isobutyramide]: the figures for the IC50 in assay [3] and in assay [4] were 1500 nM and 0.53 µM, respectively. Moreover, in assay [2] (setting [7]), the inhibition at 10 µM was determined as 36%.
As for `CNC(=O)C(C)(C)n1cc(-c2ccn3c(-c4cccc(NC(=O)NCC(F)(F)F)c4)cnc3c2)cn1` [Example 69, N-Methyl-2-[4-(3-{3-[3-(2,2,2-trifluoro-ethyl)-ureido]-phenyl}-imidazo[1,2-a]pyridin-7-yl)-pyrazol-1-yl]-isobutyramide], the IC50 stood at 260 nM in assay [3], 4600 nM in assay [2] (BaF3) and 0.096 µM in assay [4].
As to `CC(C)(C(N)=O)n1cc(-c2ccn3c(-c4cccc(NC(=O)NCC(F)(F)F)c4)cnc3c2)cn1` [Example 72, 2-[4-(3-{3-[3-(2,2,2-Trifluoro-ethyl)-ureido]-phenyl}-imidazo[1,2-a]pyridin-7-yl)-pyrazol-1-yl]-isobutyramide], the IC50 stood at 760 nM in assay [3] and 0.3 µM in assay [4]. For the same compound, the inhibition at 10 µM in assay [2] (setting [7]) was 32%.
`Nc1cc(Cl)cnc1-c1ccn2c(-c3cccc(NC(=O)NCC(F)(F)F)c3)cnc2c1` [Example 146, 1-{3-[7-(3-Amino-5-chloro-pyridin-2-yl)-imidazo[1,2-a]pyridin-3-yl]-phenyl}-3-(2,2,2-trifluoro-ethyl)-urea]: the inhibition at 1 µM in assay [1] (1 h, read-out: VEGFR2 % I) amounted to 51%. Also, the inhibition at 10 µM in assay [2] (setting [6]) worked out at 1.2%.
Take `Cc1cc(C)nc(-c2ccn3c(-c4cccc(NC(=O)NCC(F)(F)F)c4)cnc3c2)n1` [Example 160]: in assay [1] (1 h, read-out: VEGFR2 % I), the inhibition at 1 µM came out at 49.5%.
As to `CNc1nc(-c2ccn3c(-c4cccc(NC(=O)NCC(F)(F)F)c4)cnc3c2)ncc1F` [Example 162], in assay [1] (1 h, read-out: VEGFR2 % I), the inhibition at 1 µM is 59%. In addition, in assay [2] (setting [6]), the inhibition at 3 µM was found to be 37%. For the same compound, in assay [4], the IC50 amounted to 0.091 µM.
As to `CCNc1nc(-c2ccn3c(-c4cccc(NC(=O)NCC(F)(F)F)c4)cnc3c2)ncc1F` [Example 177], the IC50 in assay [1] is over 1000 nM. The inhibition at 10 µM in assay [2] (setting [6]) turned out to be 16%; in assay [4] (LP-1, read-out: LP-1 pERK ELISA, % inhibition), 47%.
In assay [1], `Nc1ncc(C(F)(F)F)c(-c2ccn3c(-c4cccc(NC(=O)NCC(F)(F)F)c4)cnc3c2)n1` [Example 179] showed an IC50 of over 10000 nM. The inhibition at 1 µM in assay [2] (setting [6]) came to 22%.
Regarding `O=C(NCC(F)(F)F)Nc1cccc(-c2cnc3cc(/C=C/c4ccccn4)ccn23)c1` [Example 186], the IC50 turned out to be 320 nM in assay [2] (BaF3) and 0.019 µM in assay [4].
For `COc1ncc(-c2ccn3c(-c4cccc(NC(=O)NCC(F)(F)F)c4)cnc3c2)cc1C` [Example 188], the IC50 is 430 nM in assay [2] (BaF3) and 0.09 µM in assay [4].
In assay [1], `O=C(NCC(F)(F)F)Nc1cccc(-c2cnc3cc(-c4nc(NC5CCC5)ncc4C(F)(F)F)ccn23)c1` [Example 191] came in with an IC50 of over 30000 nM. Also, the inhibition at 1 µM in assay [2] (setting [6]) stood at 18%.
As for `O=C(NCC(F)(F)F)Nc1cccc(-c2cnc3cc(-c4ncc(C(F)(F)F)c(NC5CCC5)n4)ccn23)c1` [Example 192], in assay [1], the IC50 is over 3000 nM. For the same compound, in assay [2] (setting [6]), the inhibition at 3 µM amounted to 49%.
Regarding `CC(C)(C)OC(=O)NC1CN(c2ccnc(-c3ccn4c(-c5cccc(NC(=O)NCC(F)(F)F)c5)cnc4c3)n2)C1` [Example 193], the inhibition at 0.89 µM in assay [1] (1 h, at 0.89 μM, read-out: VEGFR2 % I) was 36%. For the same compound, the inhibition at 3.11 µM in assay [1] (1 h, at 3.11 μM, read-out: VEGFR2 % I) is 48%. Besides, the IC50 in assay [2] (BaF3) turned out to be 1500 nM.
`Cc1nc(-c2ccn3c(-c4cccc(NC(=O)NCC(F)(F)F)c4)cnc3c2)cc(N(C)C)n1` [Example 198]: the IC50 in assay [3] was found to be 270 nM. Moreover, in assay [2] (setting [6]), the inhibition at 3 µM came to 39%.
With `Nc1cc(-c2ccn3c(-c4cccc(NC(=O)NCC(F)(F)F)c4)cnc3c2)nc(C(F)(F)F)n1` [Example 210], the inhibition at 0.1 µM in assay [1] (1 h, at 0.1 μM, read-out: VEGFR2 % I) stood at 42%. Besides, the inhibition at 3 µM in assay [2] (setting [6]) stood at 13%.
`CC(=O)N1CC(n2cc(-c3ccn4c(-c5cccc(NC(=O)NCC(F)(F)F)c5)cnc4c3)cn2)C1` [Example 212] registered an IC50 in assay [1] of over 300 nM. Moreover, in assay [2] (setting [6]), the inhibition at 3 µM is 10%.
Consider `O=C(NCC(F)(F)F)Nc1cccc(-c2cnc3cc(-c4ccc(C(=O)N5CCOCC5)cn4)ccn23)c1` [Example 223], for which, in assay [1] (1 h, read-out: VEGFR2 % I), the inhibition at 0.3 µM turned out to be 39%. For the same compound, the inhibition at 3 µM in assay [2] (setting [6]) was 45%.
With `CC(C)c1nccc(-c2ccn3c(-c4cccc(NC(=O)NCC(F)(F)F)c4)cnc3c2)n1` [Example 233], the inhibition at 3.1 µM in assay [1] (1 h, at 3.1 μM, read-out: VEGFR2 % I) was found to be 62%. In addition, the IC50 in assay [2] (BaF3) turned out to be 14.9 nM.
As to `Cc1nc(-c2ccn3c(-c4cccc(NC(=O)NCC(F)(F)F)c4)cnc3c2)cc(C(F)(F)F)n1` [Example 238], the inhibition at 0.31 µM in assay [1] (1 h, at 0.31 μM, read-out: VEGFR2 % I) was determined as 40%. For the same compound, the inhibition at 10 µM in assay [2] (setting [6]) was determined as 41%.
Take `CCNC(=O)Nc1cccc(-c2cnc3cc(-c4ccnc(C(F)(F)F)n4)ccn23)c1` [Example 239]: in assay [1] (1 h, read-out: VEGFR2 % I), the inhibition at 1 µM stood at 49%. Also, the inhibition at 3 µM in assay [2] (setting [6]) came to 26%.
In the case of `Nc1nc(-c2ccn3c(-c4cccc(NC(=O)NCC(F)(F)F)c4)cnc3c2)cc(C(F)(F)F)n1` [Example 245], the inhibition at 0.3 µM in assay [1] (1 h, read-out: VEGFR2 % I) was 43%. Besides, the IC50 in assay [2] (BaF3) is 2200 nM.
The like results for `CCN(CC)CCc1nnc(-c2ccn3c(-c4cccc(NC(=O)NCC(F)(F)F)c4)cnc3c2)s1` [Example 246] were, in that order, 45% and 1000 nM.
